US20210330611A1, “THERAPY FOR NEUROLOGICAL DISEASES/DISORDERS” (priority 2020, published 2021)
Where a name gives a salt, the structure may show the parent alone. Read-outs that look alike come from different tables or passages of the source.

Assays:
[1] = system: fibrin-induced microglia activation; experiment: Image-based assay of fibrin-induced microglia activation (HTS and dose response); type: cell-based, rat; settings: for inhibition at 10 µM: Rattus norvegicus, Microglia, read-out: Fibrin % inhibition
[2] = system: LPS-induced microglia activation; experiment: Image-based assay of LPS-induced microglia activation (HTS and dose response); type: cell-based, rat; settings: for inhibition at 10 µM: Rattus norvegicus, Microglia, read-out: LPS % inhibition
primary rat microglia [3] = experiment: Cell toxicity (dead cells, size <150 μm2) in coated fibrin (cFib) assay;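 further: share of dead cells sized under 150 µm2 at 10 µM in fibrin-stimulated microglia HTS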
[4] = system: fibrin- and LPS-induced microglia activation; experiment: cells; type: cell-based, rat
primary rat microglia [5] = experiment: Cell toxicity (dead cells, size <150 μm2) in LPS assay
[6] = primary HTS, 10 μM, fibrin-stimulated primary microglia
[7] = primary HTS, 10 μM, LPS-stimulated primary microglia
[8] = primary HTS, 10 μM, fibrin assay, dead cells size <150 μm2
[9] = primary HTS, 10 μM, LPS assay, dead cells size <150 μm2
[10] = primary microglia HTS, fibrin stimulation, increased cell size (>800 μm^2) as marker of activation
[11] = 48 h, primary microglia HTS, LPS stimulation, increased cell size (>800 μm^2) as marker of activation
[12] = primary microglia HTS, fibrin stimulation, decreased size (<150 μm^2) as marker of toxicity
[13] = quadrant by fibrin and LPS inhibition in HTS of 1907 compounds
[14] = primary microglia HTS, LPS stimulation, decreased size (<150 μm^2) as marker of toxicity

| Compound | inhibition at 10 µM [1, 6] [%] | inhibition at 10 µM [2, 7] [%] | Fibrin % cell toxicity (primary rat microglia [3]; [8]) [%] | Quadrant (FIG. 5b) ([4]; primary HTS, 10 μM) | LPS % cell toxicity (primary rat microglia [5]; [9]) [%] | Fibrin % inhibition [1, 6] [%] | LPS % inhibition [2, 7] [%] | inhibition at 10 µM [1, 10] [%] | inhibition at 10 µM [2, 11] [%] | Fibrin % cell toxicity (primary rat microglia [3]; [12]) [%] | Quadrant (FIG. 5b) [4, 13] | LPS % cell toxicity (primary rat microglia [5]; [14]) [%] |
| --- | --- | --- | --- | --- | --- | --- | --- | --- | --- | --- | --- | --- |
| Cc1nnc(SCC2=C(C(=O)O)N3C(=O)[C@@H](NC(=O)Cn4cnnn4)[C@H]3SC2)s1 [Cefazolin] | 0 | 11 | 1 | Q4 | 0 |  |  |  |  |  |  |  |
| C=CC1=C(C(=O)O)N2C(=O)[C@@H](NC(=O)/C(=N\O)c3csc(N)n3)[C@H]2SC1 [Cefdinir] | -9 | 16 | 1 | Q4 | 0 |  |  |  |  |  |  |  |
| CO/N=C(\C(=O)N[C@@H]1C(=O)N2C(C(=O)OCOC(=O)C(C)(C)C)=C(/C=C\c3scnc3C)CS[C@H]12)c1csc(N)n1 [Cefditorin Pivoxil] |  |  | 1 | Q4 | 1 | 2 | 21 |  |  |  |  |  |
| CO/N=C(\C(=O)N[C@@H]1C(=O)N2C(C(=O)O)=C(C[N+]3(C)CCCC3)CS[C@H]12)c1csc(N)n1 [Cefepime Hydrochloride] | 7 | 16 | 1 | Q4 | 0 |  |  |  |  |  |  |  |
| CO/N=C(\C(=O)N[C@@H]1C(=O)N2C(C(=O)[O-])=C(C[N+]3(C)CCCC3)CS[C@H]12)c1csc(N)n1 [Cefepime] | -26 | 4 | 1 | Q4 | 0 |  |  |  |  |  |  |  |
| C=CC1=C(C(=O)O)N2C(=O)[C@@H](NC(=O)/C(=N\OCC(=O)O)c3csc(N)n3)[C@H]2SC1 [Cefixime] | 0 | -8 | 1 | Q4 | 0 |  |  |  |  |  |  |  |
| CO/N=C(\C(=O)N[C@@H]1C(=O)N2C(C(=O)O)=C(CSc3nnnn3C)CS[C@H]12)c1csc(N)n1 [Cefmenoxime Hydrochloride] | -15 | 2 | 0 | Q4 | 0 |  |  |  |  |  |  |  |
| CO[C@@]1(NC(=O)CSCC#N)C(=O)N2C(C(=O)O)=C(CSc3nnnn3C)CS[C@@H]21 [Cefmetazole] | -50 | 8 | 0 | Q4 | 0 |  |  |  |  |  |  |  |
| O=C(O)C1=C(CSc2nnnn2CS(=O)(=O)O)CS[C@@H]2[C@H](NC(=O)[C@H](O)c3ccccc3)C(=O)N12 [Cefonicid Sodium] | -11 | 15 | 0 | Q4 | 0 |  |  |  |  |  |  |  |
| NCc1ccccc1CC(=O)N[C@@H]1C(=O)N2C(C(=O)O)=C(CSc3nnnn3CC(=O)O)CS[C@H]12 [Ceforanide] | -2 | 14 | 1 | Q4 | 1 |  |  |  |  |  |  |  |
| CO/N=C(\C(=O)N[C@@H]1C(=O)N2C(C(=O)O)=C(COC(C)=O)CS[C@H]12)c1csc(N)n1 [Cefotaxime Sodium] |  |  | 0 | Q4 | 0 | −1 | 3 |  |  |  |  |  |
| CO/N=C(\C(=O)N[C@@H]1C(=O)N2C(C(=O)O)=C(COC(C)=O)CS[C@H]12)c1csc(N)n1 [Cefotaxime] |  |  | 1 | Q4 | 0 | −20 | −8 |  |  |  |  |  |
| CO[C@@]1(NC(=O)C2SC(=C(C(N)=O)C(=O)O)S2)C(=O)N2C(C(=O)O)=C(CSc3nnnn3C)CS[C@@H]21 (stereo partly shown) [Cefotetan] | -11 | -5 | 0 | Q4 | 0 |  |  |  |  |  |  |  |
| CO[C@@]1(NC(=O)Cc2cccs2)C(=O)N2C(C(=O)O)=C(COC(N)=O)CS[C@@H]21 [Cefoxitin] | 6 | 8 | 0 | Q4 | 0 |  |  |  |  |  |  |  |
| Cc1cc(O)c(C(=O)N[C@@H](C(=O)N[C@@H]2C(=O)N3C(C(=O)O)=C(CSc4nnnn4C)CS[C@H]23)c2ccc(O)cc2)cn1 [Cefpiramide] | 12 | 20 | 1 | Q4 | 0 |  |  |  |  |  |  |  |
| COCC1=C(C(=O)OC(C)OC(=O)OC(C)C)N2C(=O)[C@@H](NC(=O)/C(=N\OC)c3csc(N)n3)[C@H]2SC1 (stereo partly shown) [Cefpodoxime Proxetil] | -39 | 12 | 0 | Q4 | 0 |  |  |  |  |  |  |  |

| Compound | inhibition at 10 µM [1, 6] [%] | inhibition at 10 µM [2, 7] [%] | Fibrin % cell toxicity (primary rat microglia [3]; [8]) [%] | Quadrant (FIG. 5b) ([4]; primary HTS, 10 μM) | LPS % cell toxicity (primary rat microglia [5]; [9]) [%] | Fibrin % inhibition [1, 6] [%] | LPS % inhibition [2, 7] [%] | inhibition at 10 µM [1, 10] [%] | inhibition at 10 µM [2, 11] [%] | Fibrin % cell toxicity (primary rat microglia [3]; [12]) [%] | Quadrant (FIG. 5b) [4, 13] | LPS % cell toxicity (primary rat microglia [5]; [14]) [%] |
| --- | --- | --- | --- | --- | --- | --- | --- | --- | --- | --- | --- | --- |
| NC(=O)c1cc[n+](CC2=C(C(=O)O)N3C(=O)[C@@H](NC(=O)[C@@H](c4ccccc4)S(=O)(=O)[O-])[C@H]3SC2)cc1 [Cefsulodin Sodium] | 3 | 14 | 0 | Q4 | 0 |  |  |  |  |  |  |  |
| Nc1nc(/C(=C/CC(=O)O)C(=O)N[C@@H]2C(=O)N3C(C(=O)O)=CCS[C@H]23)cs1 [Ceftibuten] | -7 | 12 | 1 | Q4 | 0 |  |  |  |  |  |  |  |
| CO/N=C(\C(=O)N[C@@H]1C(=O)N2C(C(=O)O)=C(CSC(=O)c3ccco3)CS[C@H]12)c1csc(N)n1 [Ceftiofur Hydrochloride] | 4 | 14 | 1 | Q4 | 0 |  |  |  |  |  |  |  |
| CO/N=C(\C(=O)N[C@@H]1C(=O)N2C(C(=O)OC(C)OC(C)=O)=C(COC(N)=O)CS[C@H]12)c1ccco1 (stereo partly shown) [Cefuroxime Axetil] | 17 | 13 | 1 | Q4 | 0 |  |  |  |  |  |  |  |
| CC(=O)OCC1=C(C(=O)[O-])N2C(=O)[C@@H](NC(=O)CCCC(N)C(=O)O)[C@H]2SC1.[Na+] (stereo partly shown) [Cephalosporin C Sodium] |  |  | 1 | Q4 | 0 | −34 | 8 |  |  |  |  |  |
| COc1ccc2cc1Oc1ccc(cc1)C[C@H]1c3c(cc4c(c3Oc3cc5c(cc3OC)CCN(C)[C@@H]5C2)OCO4)CCN1C [Cepharanthine] |  |  |  |  |  |  |  | 114 | 130 | 85 | Q2 | 58 |
| CC1=C(C(=O)O)N2C(=O)[C@@H](NC(=O)[C@H](N)C3=CCC=CC3)[C@H]2SC1 [Cephradine] | -26 | -1 | 0 | Q4 | 0 |  |  |  |  |  |  |  |
| CCCCCCCCCCCCCCCC[N+](C)(C)C [Cetrimonium] |  |  |  |  |  |  |  | 114 | 132 | 28 | Q2 | 12 |
| C[C@H](CCC(=O)O)[C@H]1CC[C@H]2[C@@H]3[C@H](O)C[C@@H]4C[C@H](O)CC[C@]4(C)[C@H]3CC[C@]12C [Chenodiol] | -32 | 4 | 0 | Q4 | 0 |  |  |  |  |  |  |  |
| CN1C(=O)CCS(=O)(=O)C1c1ccc(Cl)cc1 (stereo not shown) [Chlomezanone, Chlormezanone] |  |  | 1 | Q4 | 0 | −52 | 12 |  |  |  |  |  |
| Cc1ccc(S(=O)(=O)[N-]Cl)cc1.[Na+] [Chloramine-t] |  |  | 1 | Q4 | 0 | 4 | 11 |  |  |  |  |  |
| CCCCCCCCCCCCCCCC(=O)OC[C@@H](NC(=O)C(Cl)Cl)[C@H](O)c1ccc([N+](=O)[O-])cc1 [Chloramphenicol Palmitate] | 15 | 9 | 1 | Q4 | 1 |  |  |  |  |  |  |  |
| Nc1ncnc(Nc2ccc(Cl)cc2)n1 [Chlorazanil Hydrochloride] | 0 | 3 | 1 | Q4 | 0 |  |  |  |  |  |  |  |
| CN1CCN(C(c2ccccc2)c2ccc(Cl)cc2)CC1 (stereo not shown) [Chlorcyclizine] | 9 | 6 | 1 | Q4 | 0 |  |  |  |  |  |  |  |
| Oc1ccc(Cl)c2c1CCC2 [Chlorindanol] | 23 | 15 | 1 | Q4 | 0 |  |  |  |  |  |  |  |
| O=C1c2ccccc2C(=O)C1c1ccc(Cl)cc1 [Chlorindione] |  |  | 1 | Q4 | 0 | −7 | 10 |  |  |  |  |  |
